Data from patent US8409859B2, “Differentiation of non-embryonic stem cells to cells having a pancreatic phenotype” (Regents of the University of Minnesota, priority 2005, dated 2013).

Tests used:
rat MAPCs = assay: Cytokine mediated differentiation of rat MAPCs, Q-RT-PCR and cell survival; assay type: cell-based; conditions: activin-A, BMP4 and cyclopamine or anti-SHH Ab withdrawn after d6, cells then maintained with the factor
Experimental: For Q-RT-PCR reactions described herein, the primer sequences are presented in Tables 3-5 and the following protocols were used: RNA was extracted from the cells with the aid of the RNeasy Mini Kit (Qiagen; Valencia Calif.), followed by a DNase Treatment with DNA-Free™ (Ambion, Austin, Tex.). The RNA was reverse transcribed with TaqMan (Applied Biosystems, Foster City, Calif.; Step 1 (Incubation): 25° C., 10 min; Step 2 (RT): 48° C., 30 min; Step 3 (RT Inactivation): 95° C., 10 min).
Following reverse transcription, Quantitative Real Time PCR (Q-RT-PCR) was performed as follows: Step 1: 50° C., 2 min (Incubation); Step 2: 95° C., 10 min (Taq activation); Step 3: 95° C., 15 sec (Denaturation) followed by 60° C., 1 min (Extension) and repeat for 40 cycles; Step 4: 95° C., 15 sec (Dissociation); Step 5: 60° C., 20 sec (Melting curve); Step 6: 95° C., 15 sec.
In an initial series of studies, the effect of cell density (about 10^4-10^5 cells/cm^2), ECM component (fibronectin, collagen, matrigel) and different concentrations (10-100 ng/mL) of bFGF (10-100 ng/mL), FGF2 (10-100 ng/mL), Activin A (e.g., about 10 ng/mL to about 100 ng/mL), BMP4 (e.g., about 10 ng/mL to about 50 ng/mL), retinoic acid (about 10^−6M), EGF (e.g., about 10 to about 100 ng/mL), FGF10 (e.g., about 50 to about 150 ng/mL, including about 100 ng/mL), HGF (e.g., about 10 to about 100 ng/mL), GDF11 (e.g., about 50 to abut 150 ng/mL), cyclopamine (e.g., about 10 μM), anti-SHH antibody (Ab; e.g., about 10 μg/mL), nicotinamide (e.g., 5 μM to about 50 μM, including about 10 μM), exendin 4 (about 5 nM to about 50 nM, including about 10 nM), betacellulin (e.g., about 50 to abut 150 ng/mL) alone or in combinations of 2 or 3 and in different temporal sequences, on the induction of transcription factors, insulin, glucagon and somatostatin expression levels after 6, 12 and 18 days using Q-RT-PCR was determined.
Subsequent addition of factors believed to play a role in further proliferation and differentiation from pancreas-committed cells to mature endocrine pancreas, including EGF (e.g., about 50 ng/mL), HGF (e.g., about 50 ng/mL) and FGF10 (e.g., about 100 ng/mL), either alone or in combination was tested. […] Further optimization was obtained by adjusting the duration of the different steps along the differentiation course, as well addition of β-cellulin (50 ng/mL).

murine MAPCs = conditions: about 10 ng/mL LIF added to PDGF-BB and EGF culture; cited from earlier work
human MAPCs = conditions: about 10 ng/mL LIF; cited from earlier work

Substance | cell survival (rat MAPCs) | cell growth (murine MAPCs) | short-term cell growth (cell doubling time till 25 cell doublings, Oct 4 expression) (human MAPCs)
EGF: epidermal growth factor | significantly better | – | –
HGF: mitogenic protein used at about 50 ng/mL | significantly better | – | –
LIF: leukemia inhibitory factor, culture supplement | – | significantly enhanced cell growth | did not affect short-term cell growth
